In PubChem BioAssay AID1963961 (Molecular Pharmacology Branch, DTP, NCI, 2024):

System: K98450-129-R-PDC multicell spheroids, viability
Experiment: Anticancer human tumor K98450-129-R-PDC patient-derived colon adenocarcinoma cell line growth inhibition [PI3K]
Settings: for IC50: curve of first compound; for viability, T/C: stronger effect = lower value
Procedure, shortened: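 Complex 3D spheroids (cancer cells + endothelial HUVEC + mesenchymal stem cells); drug pairs of targeted agent x inavolisib/alpelisib/duvelisib/copanlisib; half-log series from ~Cmax, max 10 microM if Cmax unknown; endpoint viability.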

[1] = second compound 0.00316 µM, first compound 0.0316 µM
[2] = second compound 0.00316 µM, first compound 0.1 µM
[3] = second compound 0.00316 µM, first compound 0.316 µM
[4] = second compound 0.00316 µM, first compound 1 µM
[5] = second compound 0.00316 µM, first compound 3.16 µM
[6] = second compound 0.00316 µM, first compound 10 µM
[7] = second compound 0.01 µM, first compound 0.0316 µM
[8] = second compound 0.01 µM, first compound 0.1 µM
[9] = second compound 0.01 µM, first compound 0.316 µM
[10] = second compound 0.01 µM, first compound 1 µM
[11] = second compound 0.01 µM, first compound 3.16 µM
[12] = second compound 0.01 µM, first compound 10 µM
[13] = second compound 0.0316 µM, first compound 0.0316 µM
[14] = second compound 0.0316 µM, first compound 0.1 µM
[15] = second compound 0.0316 µM, first compound 0.316 µM
[16] = second compound 0.0316 µM, first compound 1 µM
[17] = second compound 0.0316 µM, first compound 3.16 µM
[18] = second compound 0.0316 µM, first compound 10 µM
[19] = second compound 0.1 µM, first compound 0.0316 µM
[20] = second compound 0.1 µM, first compound 0.1 µM
[21] = second compound 0.1 µM, first compound 0.316 µM
[22] = second compound 0.1 µM, first compound 1 µM
[23] = second compound 0.1 µM, first compound 3.16 µM
[24] = second compound 0.1 µM, first compound 10 µM
[25] = second compound 0.316 µM, first compound 0.0316 µM
[26] = second compound 0.316 µM, first compound 0.1 µM
[27] = second compound 0.316 µM, first compound 0.316 µM
[28] = second compound 0.316 µM, first compound 1 µM
[29] = second compound 0.316 µM, first compound 3.16 µM
[30] = second compound 0.316 µM, first compound 10 µM
[31] = second compound 1 µM, first compound 0.0316 µM
[32] = second compound 1 µM, first compound 0.1 µM
[33] = second compound 1 µM, first compound 0.316 µM
[34] = second compound 1 µM, first compound 1 µM
[35] = second compound 1 µM, first compound 3.16 µM
[36] = second compound 1 µM, first compound 10 µM
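Further: spheroids exposed to agents for seven days before read-out.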

Work on `CCCS(=O)(=O)Nc1ccc(F)c(C(=O)c2c[nH]c3ncc(-c4ccc(Cl)cc4)cc23)c1F` + COc1c(OCCCN2CCOCC2)ccc2c3n(c(=NC(=O)c4cnc(N)nc4)nc12)CCN3 yielded an IC50 (second compound 0.00316 µM) of 5.99 µM, an IC50 (second compound 0.01 µM) of 5.77 µM and an IC50 (second compound 0.0316 µM) of 5.54 µM. For the same compound, the IC50 (second compound 0.1 µM) was 4 µM, the IC50 (second compound 0.316 µM) was 2.71 µM and the IC50 (second compound 1 µM) was 1.65 µM. The viability, T/C [1] was 107%, the viability, T/C [2] was 105% and the viability, T/C [3] was 95.1%. The viability, T/C [4] was 120%, the viability, T/C [5] was 105% and the viability, T/C [6] was 5.65%. For the same compound, the viability, T/C [7] was 116%, the viability, T/C [8] was 93% and the viability, T/C [9] was 93.4%. For the same compound, the viability, T/C [10] was 60.2%, the viability, T/C [11] was 93.9% and the viability, T/C [12] was 12.2%. The viability, T/C [13] was 99%, the viability, T/C [14] was 95.5% and the viability, T/C [15] was 82.3%. The viability, T/C [16] was 78.3%, the viability, T/C [17] was 91.6% and the viability, T/C [18] was 8.56%. For the same compound, the viability, T/C [19] was 84%, the viability, T/C [20] was 98.2% and the viability, T/C [21] was 76.2%. It also gave a viability, T/C [22] of 80.2%, a viability, T/C [23] of 61.7% and a viability, T/C [24] of 7.64%. It also gave a viability, T/C [25] of 66.5%, a viability, T/C [26] of 79.5% and a viability, T/C [27] of 72%. For the same compound, the viability, T/C [28] was 80.2%, the viability, T/C [29] was 46.2% and the viability, T/C [30] was 7.49%. The viability, T/C [31] was 57.6%, the viability, T/C [32] was 53.8% and the viability, T/C [33] was 54.3%. For the same compound, the viability, T/C [34] was 59.9%, the viability, T/C [35] was 41.9% and the viability, T/C [36] was 7.62%.
With `C[C@@H](NC(=O)c1ncnc(N)c1Cl)c1ncc(C(=O)Nc2cc(C(F)(F)F)c(Cl)cn2)s1` + COc1c(OCCCN2CCOCC2)ccc2c3n(c(=NC(=O)c4cnc(N)nc4)nc12)CCN3 the IC50 (second compound 0.00316 µM) was over 10 µM, the IC50 (second compound 0.01 µM) was over 10 µM and the IC50 (second compound 0.0316 µM) was over 10 µM. It also gave an IC50 (second compound 0.1 µM) of over 10 µM, an IC50 (second compound 0.316 µM) of over 10 µM and an IC50 (second compound 1 µM) of 4.39 µM. The viability, T/C [1] was 119%, the viability, T/C [2] was 119% and the viability, T/C [3] was 108%. The viability, T/C [4] was 117%, the viability, T/C [5] was 133% and the viability, T/C [6] was 95%. It also gave a viability, T/C [7] of 108%, a viability, T/C [8] of 93.7% and a viability, T/C [9] of 115%. The viability, T/C [10] was 108%, the viability, T/C [11] was 105% and the viability, T/C [12] was 95.9%. The viability, T/C [13] was 83.5%, the viability, T/C [14] was 96% and the viability, T/C [15] was 97.4%. It also gave a viability, T/C [16] of 93%, a viability, T/C [17] of 109% and a viability, T/C [18] of 78.7%. It also gave a viability, T/C [19] of 76%, a viability, T/C [20] of 87% and a viability, T/C [21] of 98.4%. The viability, T/C [22] was 90.3%, the viability, T/C [23] was 101% and the viability, T/C [24] was 70.9%. For the same compound, the viability, T/C [25] was 54.8%, the viability, T/C [26] was 71.6% and the viability, T/C [27] was 65.2%. The viability, T/C [28] was 69.2%, the viability, T/C [29] was 68.2% and the viability, T/C [30] was 51.1%. It also gave a viability, T/C [31] of 58.3%, a viability, T/C [32] of 55% and a viability, T/C [33] of 51.1%. The viability, T/C [34] was 62.1%, the viability, T/C [35] was 59.6% and the viability, T/C [36] was 37.1%.
In the case of `Cn1ncnc1[C@H]1c2n[nH]c(=O)c3cc(F)cc(c23)N[C@@H]1c1ccc(F)cc1` + COc1c(OCCCN2CCOCC2)ccc2c3n(c(=NC(=O)c4cnc(N)nc4)nc12)CCN3, the IC50 (second compound 0.00316 µM) is reported as over 0.1 µM, the IC50 (second compound 0.01 µM) is reported as over 0.1 µM and the IC50 (second compound 0.0316 µM) is reported as over 0.1 µM. It also gave an IC50 (second compound 0.1 µM) of over 0.1 µM, an IC50 (second compound 0.316 µM) of over 0.1 µM and an IC50 (second compound 1 µM) of over 0.1 µM. The viability, T/C (second compound 0.00316 µM, first compound 0.000316 µM) was 98.6%, the viability, T/C (second compound 0.00316 µM, first compound 0.001 µM) was 95.2% and the viability, T/C (second compound 0.00316 µM, first compound 0.00316 µM) was 96.7%. For the same compound, the viability, T/C (second compound 0.00316 µM, first compound 0.01 µM) was 98%, the viability, T/C [1] was 100% and the viability, T/C [2] was 92.9%. It also gave a viability, T/C (second compound 0.01 µM, first compound 0.000316 µM) of 91.8%, a viability, T/C (second compound 0.01 µM, first compound 0.001 µM) of 89.6% and a viability, T/C (second compound 0.01 µM, first compound 0.00316 µM) of 95.1%. The viability, T/C (second compound 0.01 µM, first compound 0.01 µM) was 96.9%, the viability, T/C [7] was 94.6% and the viability, T/C [8] was 91.9%. For the same compound, the viability, T/C (second compound 0.0316 µM, first compound 0.000316 µM) was 90.1%, the viability, T/C (second compound 0.0316 µM, first compound 0.001 µM) was 88.7% and the viability, T/C (second compound 0.0316 µM, first compound 0.00316 µM) was 94.5%. For the same compound, the viability, T/C (second compound 0.0316 µM, first compound 0.01 µM) was 90.6%, the viability, T/C [13] was 89.5% and the viability, T/C [14] was 70.1%. For the same compound, the viability, T/C (second compound 0.1 µM, first compound 0.000316 µM) was 92.3%, the viability, T/C (second compound 0.1 µM, first compound 0.001 µM) was 85.5% and the viability, T/C (second compound 0.1 µM, first compound 0.00316 µM) was 88.6%. It also gave a viability, T/C (second compound 0.1 µM, first compound 0.01 µM) of 89.8%, a viability, T/C [19] of 89.5% and a viability, T/C [20] of 78.6%. The viability, T/C (second compound 0.316 µM, first compound 0.000316 µM) was 56.6%, the viability, T/C (second compound 0.316 µM, first compound 0.001 µM) was 63.6% and the viability, T/C (second compound 0.316 µM, first compound 0.00316 µM) was 64.5%. For the same compound, the viability, T/C (second compound 0.316 µM, first compound 0.01 µM) was 48.5%, the viability, T/C [25] was 59.1% and the viability, T/C [26] was 65.4%. The viability, T/C (second compound 1 µM, first compound 0.000316 µM) was 49.9%, the viability, T/C (second compound 1 µM, first compound 0.001 µM) was 58% and the viability, T/C (second compound 1 µM, first compound 0.00316 µM) was 52.8%. For the same compound, the viability, T/C (second compound 1 µM, first compound 0.01 µM) was 62%, the viability, T/C [31] was 56.5% and the viability, T/C [32] was 54.1%.
